Reference: EPA's ToxRefDB 2

Key:
[1] = system: mouse; details: Carcinogenicity, b6c3f1, Oral, Gavage/Intubation, dose end: 60 week, group: systemic
[2] = system: rat; details: Carcinogenicity; other; Oral; Gavage/Intubation; dose end: 78 week; group: systemic; systemic / in life observation / body weight / body weight gain + systemic / pathology microscopic / kidney / nephropathy + systemic / …
[3] = system: rat; details: Combined chronic toxicity/carcinogenicity, fischer, Oral, Feed, dose end: 2 year, group: systemic
[4] = system: rat; details: Subchronic oral toxicity in rodents, fischer, Feed, dose end: 26 week, group: systemic
[5] = system: rat; details: Prenatal developmental toxicity study, sprague dawley, Oral, Feed, dose end: 15 GD
[6] = system: rat; details: Fertility (Segment I), fischer, Oral, Feed, dose end: 16 weeks (premating)
[7] = system: mouse; details: Prenatal developmental toxicity study, cd1, Oral, Feed, dose end: 15 GD
[8] = system: rat; details: Multigenerational reproductive toxicity study, other, Oral, Gavage/Intubation, dose end: 2 generation
[9] = system: rat; details: Multigenerational reproductive toxicity study, other, Oral, Gavage/Intubation, dose end: 2 generation; remark: listed apart in the source
[10] = system: rat; details: Combined chronic toxicity/carcinogenicity, fischer, Oral, Feed, dose end: 2 year, group: systemic; remark: listed apart in the source
[11] = system: mouse; details: Carcinogenicity; b6c3f1; Oral; Feed; dose end: 2 year; group: systemic; systemic / in life observation / body weight / body weight
[12] = system: mouse; details: Subchronic oral toxicity in rodents, b6c3f1, Feed, dose end: 91 day, group: systemic, systemic / in life observation / body weight / body weight gain
[13] = system: dog; details: Chronic toxicity, beagle, Injection, Subcutaneous, dose end: 74 week, group: systemic
[14] = system: rat; details: Developmental neurotoxicity study; other; Injection; Intraperitoneal; dose end: 141 PND; group: cannot be grouped; systemic / clinical chemistry / norepinephrine (noradrenaline) / norepinephrine (noradrenaline) + systemic / in life observation / water …
[15] = system: rat; details: Developmental neurotoxicity study; wistar; Oral; Water; dose end: 60 PND; group: cannot be grouped; systemic / in life observation / body weight / offspring (pup) weight gain
[16] = systemic / pathology microscopic / kidney / nephropathy
[17] = systemic / pathology microscopic / kidney / nephropathy + systemic / pathology microscopic / stomach / squamous cell carcinoma + systemic / …
[18] = systemic / in life observation / body weight / body weight + systemic / in life observation / food consumption / food consumption + systemic…
[19] = systemic / pathology gross / full gross necropsy / leukemia mononuclear + systemic / in life observation / body weight / body weight + …
[20] = systemic / hematology / anemia / anemia - macrocytic + systemic / hematology / erythrocyte (rbc) count differential / erythrocyte (rbc) + …
[21] = group: developmental, developmental / developmental malformation / bone / [other] + developmental / developmental malformation / bone / bipartite ossification + …
[22] = group: maternal, reproductive / reproductive performance / resorptions / resorptions + systemic / in life observation / body weight / body weight + systemic…
[23] = group: maternal, reproductive / reproductive performance / fertility / fertility
[24] = group: parental, systemic / hematology / erythrocyte (rbc) count differential / erythrocyte (rbc) + systemic / hematology / hemoglobin (hgb) / hemoglobin (…
[25] = group: developmental, developmental / developmental malformation / bone / exencephaly + developmental / developmental malformation / bone / [other] + …
[26] = group: maternal, reproductive / offspring survival early / litter size / litter size + reproductive / offspring survival early / live fetuses / live fetuses…
[27] = group: offspring, systemic / clinical chemistry / triiodothyronine (t3) / triiodothyronine (t3), total + systemic / in life observation / body weight / …
[28] = group: parental, systemic / in life observation / clinical signs / salivation + systemic / organ weight / kidney / absolute + systemic / organ weight / …
[29] = group: reproductive, reproductive / offspring survival early / live fetuses / live fetuses
[30] = group: offspring, developmental / developmental landmark / anogenital distance (agd) / anogenital distance (agd)
[31] = group: reproductive, reproductive / reproductive performance / fertility / fertility
[32] = systemic / organ weight / kidney / relative to body weight
[33] = systemic / clinical chemistry / cholesterol / cholesterol + systemic / clinical chemistry / glucose / glucose + systemic / hematology / […
[34] = systemic / clinical chemistry / cholesterol / cholesterol + systemic / hematology / [other] / [other] + systemic / hematology / hematocrit (…

`ClCC(Br)CBr` (stereo not drawn) [1,2-Dibromo-3-chloropropane] showed an LOAEL [1, 16] of 110 mg/kg/day, an NOAEL [1, 16] of less than 110 mg/kg/day and an LEL [1, 17] of 110 mg/kg/day. It also gave an NEL [1, 17] of less than 110 mg/kg/day, an LEL [2] of 15 mg/kg/day and an LOAEL [2] of 15 mg/kg/day. For the same compound, the NEL [2] was less than 15 mg/kg/day and the NOAEL [2] was less than 15 mg/kg/day.

For `CCCCOC(=O)c1ccccc1C(=O)OCc1ccccc1` [Butyl benzyl phthalate], the LEL [3, 18] was 300 mg/kg/day, the NEL [3, 18] was less than 300 mg/kg/day and the LOAEL [3, 19] was greater than 600 mg/kg/day. For the same compound, the NOAEL [3, 19] was no less than 600 mg/kg/day, the LOAEL [4, 20] was 1250 mg/kg/day and the NEL [4, 20] was 60 mg/kg/day. For the same compound, the NOAEL [4, 20] was 550 mg/kg/day, the LEL ([4]; systemic / hematology / erythrocyte (rbc) count differential / erythrocyte (rbc)) was 180 mg/kg/day and the LOAEL [5, 21] was greater than 1640 mg/kg/day. For the same compound, the NEL [5, 21] was 420 mg/kg/day, the NOAEL [5, 21] was no less than 1640 mg/kg/day and the LEL ([5]; group: developmental, developmental / developmental malformation / bone / short supernumerary) was 1100 mg/kg/day. The LOAEL [5, 22] was greater than 1640 mg/kg/day, the NEL [5, 22] was 420 mg/kg/day and the NOAEL [5, 22] was no less than 1640 mg/kg/day. It also gave an LEL ([5]; group: maternal, systemic / in life observation / body weight / body weight + systemic / in life observation / body weight / body weight gain + systemic / in…) of 1100 mg/kg/day, an LEL [6, 23] of 2200 mg/kg/day and an LOAEL [6, 23] greater than 2200 mg/kg/day. The NEL [6, 23] was 200 mg/kg/day, the NOAEL [6, 23] was no less than 2200 mg/kg/day and the LOAEL [6, 24] was greater than 2200 mg/kg/day. The NEL [6, 24] was 20 mg/kg/day, the NOAEL [6, 24] was no less than 2200 mg/kg/day and the LEL ([6]; group: parental, systemic / pathology gross / sperm measure / sperm count) was 200 mg/kg/day. For the same compound, the LEL ([7]; group: developmental, developmental / developmental malformation / bone / exencephaly) was 910 mg/kg/day, the LOAEL [7, 25] was greater than 2330 mg/kg/day and the NEL [7, 25] was 182 mg/kg/day. It also gave an NOAEL [7, 25] of no less than 2330 mg/kg/day, an LEL ([7]; group: maternal, reproductive / offspring survival early / litter size / litter size + reproductive / offspring survival early / live fetuses / live fetuses) of 910 mg/kg/day and an LOAEL [7, 26] greater than 2330 mg/kg/day. The NEL [7, 26] was 182 mg/kg/day, the NOAEL [7, 26] was no less than 2330 mg/kg/day and the LEL [8, 27] was 100 mg/kg/day. It also gave an LOAEL [8, 27] greater than 500 mg/kg/day, an NEL [8, 27] of 20 mg/kg/day and an NOAEL [8, 27] of no less than 500 mg/kg/day. It also gave an LEL [8, 28] of 100 mg/kg/day, an LOAEL [8, 28] greater than 500 mg/kg/day and an NEL [8, 28] of 20 mg/kg/day. The NOAEL [8, 28] was no less than 500 mg/kg/day, the LEL [8, 29] was 500 mg/kg/day and the LOAEL [8, 29] was greater than 500 mg/kg/day. The NEL [8, 29] was 100 mg/kg/day, the NOAEL [8, 29] was no less than 500 mg/kg/day and the LEL [9, 30] was 100 mg/kg/day. For the same compound, the LOAEL [9, 30] was 100 mg/kg/day, the NEL [9, 30] was less than 100 mg/kg/day and the NOAEL [9, 30] was less than 100 mg/kg/day. It also gave an LEL ([9]; group: parental, systemic / in life observation / clinical signs / salivation + systemic / organ weight / kidney / absolute + systemic / organ weight / liver…) of 200 mg/kg/day, an LOAEL [9, 28] greater than 400 mg/kg/day and an NEL [9, 28] of 100 mg/kg/day. It also gave an NOAEL [9, 28] of no less than 400 mg/kg/day, an LEL [9, 31] of 400 mg/kg/day and an LOAEL [9, 31] greater than 400 mg/kg/day. It also gave an NEL [9, 31] of 200 mg/kg/day, an NOAEL [9, 31] of no less than 400 mg/kg/day and an LOAEL ([10]; systemic / in life observation / body weight / body weight + systemic / pathology microscopic / pancreas / hyperplasia) of 500 mg/kg/day. For the same compound, the NOAEL ([10]; systemic / in life observation / body weight / body weight + systemic / pathology microscopic / pancreas / hyperplasia + systemic / …) was 240 mg/kg/day, the LEL [10, 32] was 120 mg/kg/day and the NEL [10, 32] was less than 120 mg/kg/day. It also gave an LEL [11] of 900 mg/kg/day, an LOAEL [11] of 900 mg/kg/day and an NEL [11] of less than 900 mg/kg/day. The NOAEL [11] was less than 900 mg/kg/day, the LEL [12] was 240 mg/kg/day and the LOAEL [12] was greater than 3750 mg/kg/day. The NEL [12] was less than 240 mg/kg/day and the NOAEL [12] was no less than 3750 mg/kg/day.

With `CC(=O)[C@H]1CC[C@H]2[C@@H]3CCC4=CC(=O)CC[C@]4(C)[C@H]3CC[C@]12C` [Progesterone] the LOAEL [13, 33] was greater than 22.5 mg/kg/day, the NOAEL [13, 33] was no less than 22.5 mg/kg/day and the LEL [13, 34] was 2.5 mg/kg/day. For the same compound, the NEL [13, 34] was less than 2.5 mg/kg/day.

With `CC(C)NCC(O)COc1cccc2ccccc12.Cl` (stereo not drawn) [Propranolol hydrochloride] the LEL [14] was 5 mg/kg/day, the LOAEL [14] was greater than 5 mg/kg/day and the NEL [14] was less than 5 mg/kg/day. The NOAEL [14] was no less than 5 mg/kg/day, the LEL [15] was 10 mg/kg/day and the LOAEL [15] was greater than 10 mg/kg/day. For the same compound, the NEL [15] was less than 10 mg/kg/day and the NOAEL [15] was no less than 10 mg/kg/day.
